Test results taken from US20030073705A1, “Method of treatment” (priority 2001, published 2003).

Columns and labels:
[1] = tested on: patients with Type 2 diabetes and nephropathy; assay: Secondary endpoint: cardiovascular morbidity and mortality and components; type: in vivo, human
Experimental: (§1) The study involved male and female patients ranging in age from 31 to 70 years diagnosed with Type 2 diabetes and nephropathy; the latter defined as two urine albumin:creatinine ratios from a first morning specimen >300 mg/g (34 mg/mmol) (or a 24-hr urine protein >=500 mg (0.5 g/day)) and two serum creatinine values between 1.3 and 3.0 mg/dL (115 and 265 μmol/L) (lower limit of 1.5 mg/dL (133 μmol/L)for males >60 kg). […] Journal of the Renin Angiotensin Aldosterone System 2000;1(4):328-35. Patients were excluded from the study if diagnosed with Type 1 diabetes or nondiabetic renal disease, including renal artery stenosis. Patients with a history of heart failure, myocardial infarction or coronary artery bypass grafting within 1 month, cerebral vascular accident or percutaneous transluminal coronary angioplasty within 6 months or transient ischemic attacks within 1 year prior to enrollment were excluded.
(§2) During the 6-week screening phase, hypertensive patients continued to take their standard antihypertensive therapy. However, in those patients taking angiotensin I converting enzyme inhibitors or angiotensin II receptor antagonists, these agents were discontinued at the beginning of the screening phase and replaced by alternative open-label therapy at the investigator's discretion (diuretic, calcium-channel antagonist, α- or β-blocker, and/or centrally acting agent). […] After an additional 8 weeks, further antihypertensive therapy with agents described above (exclusive of angiotensin I converting enzyme inhibitors or angiotensin II receptor antagonists), were added or increased in dosage to achieve the goal trough sitting blood pressure.
(§3) The primary efficacy parameter was a composite endpoint of time to the first event of doubling of serum creatinine concentration, end stage renal disease, or death. End stage renal disease was defined as the need for chronic dialysis or renal transplantation. The prespecified secondary endpoint, cardiovascular morbidity and mortality, was a composite of myocardial infarction, stroke, hospitalization for heart failure or unstable angina, coronary or peripheral revascularization, and death from cardiovascular-related causes. Analyses of the components of both the primary and secondary composite endpoints also were prespecified. Other secondary endpoints included progression of renal disease as assessed by the slope of the reciprocal of serum creatinine concentration and changes in proteinuria. (See Mitch W E, Walser M, Buffington G A, Lemann J Jr. A simple method of estimating progression of chronic renal failure. Lancet 1976;2:1326-8.) An independent, blinded endpoint committee adjudicated all potential clinical endpoints occurring from the time of randomization until study termination.
(§4) A supportive, per-protocol analysis excluded patients who violated the inclusion/exclusion criteria, and censored patients 14 days after permanent discontinuation of study medication.

[2] = tested on: patients with Type 2 diabetes and nephropathy; assay: Trough sitting blood pressure during the study; type: in vivo, human
Experimental: The results reported here represent a mean follow-up time of 3.4 years.
as §1, §2
Throughout the study, patients received standard medical care for treatment of diabetes, including routine measurements of HbAlc and fasting serum glucose concentrations. Study visits were scheduled every 3 months or more frequently if necessary for monitoring trough sitting blood pressure control, changes in laboratory measurements, adverse experiences and endpoints. Patients who discontinued early from blinded study therapy were followed every 3 months until study end for primary and secondary endpoints, blood pressure control and laboratory measurements. Those who could not return for clinic visits were contacted by telephone for endpoints of dialysis, renal transplantation or death. […]

[3] = tested on: patients with Type 2 diabetes and nephropathy; assay: Triple-blind, randomized, placebo-controlled study: primary composite endpoint (doubling of serum creatinine, end stage renal disease or death) and components; type: in vivo, human
Experimental: as §1, §2
(§5) Throughout the study, patients received standard medical care for treatment of diabetes, including routine measurements of HbAlc and fasting serum glucose concentrations. Study visits were scheduled every 3 months or more frequently if necessary for monitoring trough sitting blood pressure control, changes in laboratory measurements, adverse experiences and endpoints. Patients who discontinued early from blinded study therapy were followed every 3 months until study end for primary and secondary endpoints, blood pressure control and laboratory measurements. Those who could not return for clinic visits were contacted by telephone for endpoints of dialysis, renal transplantation or death.
as §3, §4

[4] = tested on: patients with Type 2 diabetes and nephropathy; assay: Discontinuation from study therapy and adverse experiences; conditions: n = 751
Experimental: as §1, §2, §5

[5] = tested on: patients with Type 2 diabetes and nephropathy; assay: Secondary endpoints: proteinuria and progression of renal disease (slope of reciprocal of serum creatinine); type: in vivo, human; conditions: on-treatment; p=0.01 versus placebo
Experimental: as §1
During the 6-week screening phase, hypertensive patients continued to take their standard antihypertensive therapy. […]
The primary efficacy parameter was a composite endpoint of time to the first event of doubling of serum creatinine concentration, end stage renal disease, or death. […] Other secondary endpoints included progression of renal disease as assessed by the slope of the reciprocal of serum creatinine concentration and changes in proteinuria. […]

[6] = intention-to-treat, n = 751, mean follow-up 3.4 years
[7] = losartan relative to placebo, p=0.010

Which “Composite endpoint of cardiovascular morbidity and mortality, difference versus placebo plus conventional therapy” value ([1]; losartan plus conventional therapy) does the source give for “2-N-butyl-4-chloro-5-hydroxymethyl-1-[(2′-(1H-tetrazol-5-yl)biphenyl-4-yl)-methyl]imidazole, potassium salt [Losartan]” here?
Its value is “no significant difference”.

And the “Patients with myocardial infarction” value ([1]; mean follow-up 3.4 years)?
Its value is 50 patients.

And the “Patients with hospitalization for heart failure” value ([1]; time to first hospitalization, mean follow-up 3.4 years)?
The value was 89 patients.

What about the “Risk reduction, hospitalization for heart failure” value ([1]; versus placebo, p=0.005) of the same substance?
Its value is 32%.

What about the “Risk reduction, myocardial infarction” value ([1]; versus placebo, p=0.08, did not reach statistical significance) of the same substance?
Its value is 28%.

What about the “Risk reduction, fatal or non-fatal cardiovascular event” value ([1]; versus placebo, p=0.26) of the same substance?
Its value is 9%.

And the “Trough diastolic blood pressure” value ([2]; at 1 year, average)?
Its value is 78 mmHg.

What about the “Trough systolic blood pressure” value ([2]; at 1 year, average) of the same substance?
The value was 146 mmHg.

What about the Mean arterial pressure ([2]; at 1 year, p<0.001 versus placebo) of the same substance?
Its Mean arterial pressure is 100.9 mmHg.

And the Pulse pressure ([2]; at 1 year, p=0.047 versus placebo)?
The Pulse pressure was 67.8 mmHg.

What about the “Trough diastolic blood pressure” value ([2]; at study end, average) of the same substance?
Its value is 74 mmHg.

And the “Trough systolic blood pressure” value ([2]; at study end, average)?
Its value is 140 mmHg.

What about the Mean arterial pressure ([2]; at study end, p=0.59 versus placebo) of the same substance?
The Mean arterial pressure was 95.9 mmHg.

And the Pulse pressure ([2]; at study end, p=0.77 versus placebo)?
Its Pulse pressure is 66.7 mmHg.

What about the “Trough diastolic blood pressure” value ([2]; at year 2, average) of the same substance?
Its value is 77 mmHg.

And the “Trough systolic blood pressure” value ([2]; at year 2, average)?
The value was 143 mmHg.

And the Pulse pressure ([2]; at year 2, p=0.37 versus placebo)?
The Pulse pressure was 66.2 mmHg.

What about the Mean arterial pressure ([2]; at year 2, p=0.38 versus placebo) of the same substance?
The Mean arterial pressure was 99.1 mmHg.

And the “Patients reaching primary composite endpoint (number)” value ([3]; intention-to-treat analysis)?
Its value is 327 patients.

What about the “Patients reaching primary composite endpoint (percent)” value ([3]; intention-to-treat analysis) of the same substance?
Its value is 43.5%.

What about the “Primary composite endpoint, event rate” value ([3]; intention-to-treat analysis) of the same substance?
The value was 15.9 /100 patient years of follow-up.

What about the “Doubling of sCr, ESRD or Death (composite primary endpoint), patients” value ([3]; intention-to-treat, losartan 50 to 100 mg once daily +CT, n = 751, mean follow-up 3.4 years) of the same substance?
Its value is 327 (43.5) n (%).

What about the “Death, patients” value [3, 6] of the same substance?
The value was 158 (21.0) n (%).

What about the “Doubling of sCr or ESRD, patients” value [3, 6] of the same substance?
Its value is 226 (30.1) n (%).

What about the “Doubling of sCr, patients” value [3, 6] of the same substance?
The value was 162 (21.6) n (%).

And the “ESRD or Death, patients” value [3, 6]?
Its value is 255 (34.0) n (%).

And the “ESRD, patients” value [3, 6]?
The value was 147 (19.6) n (%).

What about the “Risk Reduction, Doubling of sCr, ESRD or Death (composite primary endpoint)” value ([3]; losartan relative to placebo, intention-to-treat, Cox model, p=0.024) of the same substance?
The value was 16%.

And the “Risk Reduction, ESRD” value ([3]; losartan relative to placebo, p=0.002)?
Its value is 28%.

What about the “Risk Reduction, Doubling of sCr” value ([3]; losartan relative to placebo, p=0.006) of the same substance?
Its value is 25%.

And the “Risk Reduction, Doubling of sCr or ESRD” value [3, 7]?
The value was 21%.

And the “Risk Reduction, ESRD or Death” value [3, 7]?
Its value is 20%.

What about the “Risk Reduction, Death” value ([3]; losartan relative to placebo, p=0.882) of the same substance?
The value was −2%.

What about the “Decrease in risk of primary composite endpoint after correcting for blood pressure” value ([3]; mean arterial pressure as time-varying covariate, p=0.034) of the same substance?
Its value is 15%.

And the “Risk reduction in primary composite endpoint, per protocol analysis” value ([3]; patients who remained on treatment throughout the protocol, p=0.008)?
The value was 22%.

What about the “Effect in pre-defined subgroups (primary composite, ESRD, ESRD or death)” value ([3]; patients with baseline serum creatinine greater than 2.0 mg/dL and urine albumin:creatinine ratio greater than 2000 mg/g) of the same substance?
Its value is “particularly beneficial”.

And the “Discontinued for Any Reason” value ([4]; discontinuation from study therapy)?
The value was 341 (45.4) n (%).

What about the “Clinical adverse experience causing discontinuation: End Stage Renal Disease” value [4] of the same substance?
The value was 16 (2.1) n (%).

What about the “Clinical adverse experience causing discontinuation: Heart Failure” value [4] of the same substance?
The value was 23 (3.0) n (%).

And the “Clinical adverse experience causing discontinuation: Myocardial Infarction” value [4]?
Its value is 7 (0.9) n (%).

And the “Clinical adverse experience causing discontinuation: Stroke” value [4]?
The value was 9 (1.2) n (%).

And the “Clinical adverse experience causing discontinuation: Worsening renal insufficiency” value [4]?
The value was 8 (1.1) n (%).

And the “Discontinuation from study therapy: Clinical Adverse Experience” value [4]?
The value was 128 (17.0) n (%).

And the “Discontinuation from study therapy: Deaths” value [4]?
Its value is 65 (8.7) n (%).

And the “Discontinuation from study therapy: Laboratory Adverse Experience” value [4]?
The value was 21 (2.8) n (%).

And the “Laboratory adverse experience causing discontinuation: Hyperkalemia” value [4]?
The value was 9 (1.2) n (%).

What about the “Rate of decline in renal function, median slope of reciprocal of serum creatinine concentration” value [5] of the same substance?
Its value is −0.056 dl/mg/yr.
